Measurements as given in patent US12281149B2, “Modulators of G-protein coupled receptors” (priority 2021, dated 2025).
pEC50: −log10 of the molar value. *1 amine or outer side, *2 acyl side, *3 side chain or, on linkers, in order; H or OH if unused. Where a SMILES comes first, the peptide text is derived from it. Side-chain parts run from the residue outwards. [ ]: non-standard residue; d: D form. The star is where a group is joined. Isobutyryl(2-(3-CN-5-F-Ph)) = CC(C)(C(=O)*)c1cc(F)cc(C#N)c1; C20 diacid = O=C(O)CCCCCCCCCCCCCCCCCCC(=O)*; γGlu = O=C(O)[C@H](CCC(=O)[*:2])N[*:1]; X37 = CC(C)(C(=O)*)c1cc(F)ccc1F; d(β3hD) = NC(CC(=O)O)CC(=O)O; AEEA = NCCOCCOCC(=O)O; Aib = CC(C)(N)C(=O)O; βAla = NCCC(=O)O

Key:
Format in all cases: cell-based
GLP-1 receptor [1] = biological target: T1, GLP-1 receptor (Homo sapiens, UniProt P43220); assay: HitHunter cAMP assay, GLP-1 receptor; conditions: for pEC50: CHO cells stably expressing human GLP-1 receptor, cAMP accumulation, 30 min, read-out: EC50 GLP-1R; for Emax: CHO cells, cAMP, normalized to maximum signal from GLP-1 (high) and DMSO (low), read-out: Emax GLP-1R
GIP receptor [2] = biological target: T2, GIP receptor (Homo sapiens, UniProt P48546); assay: PathHunter β-arrestin assay, GIP receptor; set-up: host or cells: PathHunter CHO-K1 GIPR β-Arrestin Cell Line; conditions: β-arrestin-2 recruitment, PathHunter CHO-K1 GIPR β-Arrestin Cell Line, 90 min at 37° C.; normalized to GIP; read-out: GIPR β Arrestin EC50
T2 sequence (P48546 22-466): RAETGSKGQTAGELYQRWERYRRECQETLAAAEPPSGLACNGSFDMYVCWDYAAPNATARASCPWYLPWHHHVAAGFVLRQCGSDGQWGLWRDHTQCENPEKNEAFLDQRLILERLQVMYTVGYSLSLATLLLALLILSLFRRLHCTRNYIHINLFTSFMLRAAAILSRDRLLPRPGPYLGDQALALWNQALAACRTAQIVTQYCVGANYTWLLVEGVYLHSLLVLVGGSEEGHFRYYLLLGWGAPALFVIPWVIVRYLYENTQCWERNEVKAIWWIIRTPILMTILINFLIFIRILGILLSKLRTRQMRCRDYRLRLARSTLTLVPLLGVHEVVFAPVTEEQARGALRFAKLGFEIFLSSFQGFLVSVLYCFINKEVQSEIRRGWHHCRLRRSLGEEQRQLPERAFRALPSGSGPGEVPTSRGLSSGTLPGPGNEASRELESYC

GLP-1 receptor [3] = biological target: T1, GLP-1 receptor; assay: PathHunter β-arrestin assay, GLP-1 receptor; set-up: host or cells: PathHunter CHO-K1 GLP1R β-Arrestin Cell Line; conditions: β-arrestin-2 recruitment, PathHunter CHO-K1 GLP1R β-Arrestin Cell Line, 90 min at 37° C.; normalized to GLP-1; read-out: GLP-1R β Arrestin EC50
GIP receptor [4] = biological target: T2, GIP receptor; assay: HitHunter cAMP assay, GIP receptor; conditions: for pEC50: CHO cells stably expressing GIP receptor, cAMP accumulation, 30 min, read-out: EC50 GIP-1R; for Emax: CHO cells, cAMP, normalized to maximum signal from GIP (high) and DMSO (low), read-out: Emax GIP-1R

T1 sequence (P43220 24-463): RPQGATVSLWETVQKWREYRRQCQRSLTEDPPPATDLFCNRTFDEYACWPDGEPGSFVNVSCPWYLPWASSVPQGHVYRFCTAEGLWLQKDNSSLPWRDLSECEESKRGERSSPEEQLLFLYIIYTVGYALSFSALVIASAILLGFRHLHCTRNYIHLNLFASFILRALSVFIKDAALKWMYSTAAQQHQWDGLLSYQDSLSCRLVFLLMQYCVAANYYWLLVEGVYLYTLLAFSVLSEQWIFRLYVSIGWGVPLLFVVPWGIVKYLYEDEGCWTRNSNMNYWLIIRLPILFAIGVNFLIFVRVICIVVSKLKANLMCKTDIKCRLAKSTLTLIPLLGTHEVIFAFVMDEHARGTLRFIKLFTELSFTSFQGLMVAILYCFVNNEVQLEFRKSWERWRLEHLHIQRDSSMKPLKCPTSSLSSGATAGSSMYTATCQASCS

Row | SMILES | pEC50 (GLP-1 receptor [1]) | Emax (GLP-1 receptor [1]) [%] | pEC50 (GIP receptor [2]) | pEC50 (GLP-1 receptor [3]) | pEC50 (GIP receptor [4]) | Emax (GIP receptor [4]) [%]
1 | CC[C@H](C)[C@H](NC(=O)[C@H](CC(C)C)NC(=O)[C@H](Cc1c[nH]c2ccccc12)NC(=O)[C@H](CCC(N)=O)NC(=O)[C@@H](NC(=O)[C@H](Cc1ccccc1)NC(=O)[C@H](C)NC(=O)[C@H](CCCCNC(=O)COCCOCCNC(=O)COCCOCCNC(=O)CC[C@H](NC(=O)CCCCCCCCCCCCCCCCCCC(=O)O)C(=O)O)NC(=O)[C@H](CCC(N)=O)NC(=O)[C@H](C)NC(=O)[C@@H](NC(=O)[C@H](CCCCN)NC(=O)[C@H](CC(=O)O)NC(=O)[C@H](CC(C)C)NC(=O)C(C)(C)NC(=O)[C@@H](NC(=O)[C@H](CO)NC(=O)[C@H](Cc1ccc(O)cc1)NC(=O)[C@H](CC(=O)O)NC(=O)[C@H](CO)NC(=O)[C@@H](NC(=O)[C@H](Cc1ccccc1)NC(=O)[C@@H](NC(=O)CNC(=O)[C@H](CCC(=O)O)NC(=O)CCNC(=O)C(C)(C)c1cc(F)ccc1F)[C@@H](C)O)[C@@H](C)O)[C@@H](C)CC)[C@@H](C)CC)C(C)C)C(=O)N[C@@H](C)C(=O)NCC(=O)NCC(=O)N1CCC[C@H]1C(=O)N[C@@H](CO)C(=O)N[C@@H](CO)C(=O)NCC(=O)N[C@@H](C)C(=O)N1CCC[C@H]1C(=O)N1CCC[C@H]1C(=O)N1CCC[C@H]1C(=O)N[C@@H](CO)C(N)=O [Compound 146] ({X37-βAla}-EGTFTSDYSI[Aib]LDKIAQK([AEEA-AEEA-γGlu-C20 diacid])AFVQWLIAGGPSSGAPPPS-NH2) | 9.00 to 10.00 | 102 | > 6.00 | < 6.00 | 8.00 to 9.00 | 104
2 | CC[C@H](C)[C@H](NC(=O)[C@H](CC(C)C)NC(=O)[C@H](Cc1c[nH]c2ccccc12)NC(=O)[C@H](CCC(N)=O)NC(=O)[C@@H](NC(=O)[C@H](Cc1ccccc1)NC(=O)[C@H](C)NC(=O)[C@H](CCCCNC(=O)COCCOCCNC(=O)COCCOCCNC(=O)CC[C@H](NC(=O)CCCCCCCCCCCCCCCCCCC(=O)O)C(=O)O)NC(=O)[C@H](CCC(N)=O)NC(=O)[C@H](C)NC(=O)[C@@H](NC(=O)[C@H](CCCCN)NC(=O)[C@H](CC(=O)O)NC(=O)[C@H](CC(C)C)NC(=O)C(C)(C)NC(=O)[C@@H](NC(=O)[C@H](CO)NC(=O)[C@H](Cc1ccc(O)cc1)NC(=O)[C@H](CC(=O)O)NC(=O)[C@H](CO)NC(=O)[C@@H](NC(=O)[C@H](Cc1ccccc1)NC(=O)[C@@H](NC(=O)CNC(=O)C[C@@H](CC(=O)O)NC(=O)CCNC(=O)C(C)(C)c1cc(F)cc(C#N)c1)[C@@H](C)O)[C@@H](C)O)[C@@H](C)CC)[C@@H](C)CC)C(C)C)C(=O)N[C@@H](C)C(=O)NCC(=O)NCC(=O)N1CCC[C@H]1C(=O)N[C@@H](CO)C(=O)N[C@@H](CO)C(=O)NCC(=O)N[C@@H](C)C(=O)N1CCC[C@H]1C(=O)N1CCC[C@H]1C(=O)N1CCC[C@H]1C(=O)N[C@@H](CO)C(N)=O [Compound 104] ({Isobutyryl(2-(3-CN-5-F-Ph))-βAla}-[d(β3hD)]GTFTSDYSI[Aib]LDKIAQK([AEEA-AEEA-γGlu-C20 diacid])AFVQWLIAGGPSSGAPPPS-NH2) | 6.00 to 7.00 | 60 | < 6.00 | < 6.00 | 6.00 to 7.00 | 66
